Measured values published in US20050059720A1, “Medicinal compositions for the prevention or treatment of cardiac failure” (SANKYO COMPANY, LIMITED, priority 2000, published 2005).

Tested on: Ventricular Cells in the Area Adjacent to Infarction
Assay: Suppression of hypertrophy of ventricular cells in the area adjacent to infarction (coronary artery ligation)
Assay type: in vivo, Wistar rats
Conditions: rats, 4 weeks administration after coronary ligation; pravastatin 5 mg/kg/day, CS-866 2 mg/kg/day; normal 2,737, control 3,812

Structure (SMILES): CC[C@H](C)C(=O)O[C@H]1C[C@H](O)C=C2C=C[C@H](C)[C@H](CC[C@@H](O)C[C@@H](O)CC(=O)O)[C@H]21 [pravastatin, (+)-(3R,5R)-3,5-dihydroxy-7-[(1S,2S,6S,8S,8aR)-6-hydroxy-2-methyl-8-[(S)-2-methylbutyryloxy]-1,2,6,7,8,8a-hexahydro-1-naphthyl]heptanoic acid]
- Mass of cardiac muscle cells in adjacent area to the infarction: 3,053 μm^2
